Source: patent US6360588B1, “Materials and methods for the analysis of substances passing through a membrane” (priority 1998, dated 2002)

Test: diffusion through polydimethylsiloxane membrane (MAPI, electrospray mass spectrometry detection)
Format: physicochemical
Conditions: polydimethylsiloxane membrane 0.01 to 0.05 inches thick; result in words, curves in FIGS. 8-11
From the text: In operation, once the membrane and spacer are in place and the top portion 50 and bottom plate 56 are secured, a substance under study can be placed in contact with the first side of the membrane. Carrier fluid can be flowing through volume 64 and to a detection means. As the substance diffuses through the membrane and exits the second side of the membrane, it can be carried to the detection apparatus for analysis. In this way, an accurate time dependent curve can be generated as to the amounts of the substance under study exiting the second side of the membrane. This example illustrates the results from diffusion of a variety of substances through polydimethylsiloxane membrane obtained from PILLAR SCIENTIFIC, ranging in thickness from 0.01 inches to 0.05 inches. A mass spectrometer was used as a detection apparatus with electrospray ionization utilized to ionize the sample for detection in the mass spectrometer.

Compound | diffusion through the membrane (relative abundance exiting the second side as a function of time)
Clc1cccc(Cl)c1N=C1NCCN1 [clonidine] | clonidine diffusing through the membrane
CCOC(=O)c1ccc(O)cc1 [ethyl paraben] | diffusion of ethyl paraben through the polydimethylsiloxane membrane
COC(=O)c1ccc(O)cc1 [methyl paraben] | diffusion of methyl paraben through the polydimethylsiloxane membrane
CCCCOC(=O)c1ccc(O)cc1 [n-butyl paraben] | diffusion of n-butyl paraben through the polydimethylsiloxane membrane
